# Results: article PMC6367362, “MD001, a Novel Peroxisome Proliferator-activated Receptor α/γ Agonist, Improves Glucose and Lipid Metabolism” (Scientific Reports, 2019)
# How the values were obtained:
# [1] = test system: HepG2 cells; test: Fatty acid oxidation assay ([3H]palmitate), HepG2; format: cell-based, human; details: 10 μM, 24 h
# Method: Figure 4 MD001 stimulates fatty acid oxidation in vitro. HepG2 (A), differentiated 3T3-L1 adipocyte (B), and differentiated C2C12 myotubes (C) were treated with vehicle or MD001 (10 μM) for 24 h and total RNA was isolated for cDNA synthesis. Relative gene expressions were analysed by qRT-PCR. HepG2 (D), differentiated 3T3-L1 adipocytes (E), and differentiated C2C12 myotubes (F) were treated with vehicle, MD001 (10 μM), or WY14643 (WY) (10 μM) for 24 h and the fatty acid oxidation rate was analysed as described in the Methods section. To confirm whether the fatty acid oxidation rate enhanced by MD001 is mediated by PPARα, HepG2 (G), differentiated 3T3-L1 (H), and differentiated C2C12 myotubes (I) were transfected with control or PPARα siRNA (20 nM) for 48 h, followed by treatment with vehicle, MD001 (10 μM), or WY14643 (WY) (10 μM) for 24 h. […]
# For the fatty acid oxidation assay, cells were incubated in α-MEM (HyClone Laboratories, Inc., Logan, UT, USA) containing 0.1 mM palmitate (9,10-[^3H]palmitate, 5 μci/mL) (PerkinElmer, Waltham, MA, USA) and 1% bovine serum albumin for 24 h. […] After incubation, the vial was removed and radioactivity (^3H2O in water) was quantified using a liquid scintillation counter (LKB Instruments, Victoria, Australia).
# [2] = target: T1, PPARα (Homo sapiens, UniProt Q07869); test: SPR analysis of binding to immobilised HA-PPARα; details: MD001 31.25-500 μM
# T1 construct: HA; made in house
# T1 sequence (Q07869 1-468): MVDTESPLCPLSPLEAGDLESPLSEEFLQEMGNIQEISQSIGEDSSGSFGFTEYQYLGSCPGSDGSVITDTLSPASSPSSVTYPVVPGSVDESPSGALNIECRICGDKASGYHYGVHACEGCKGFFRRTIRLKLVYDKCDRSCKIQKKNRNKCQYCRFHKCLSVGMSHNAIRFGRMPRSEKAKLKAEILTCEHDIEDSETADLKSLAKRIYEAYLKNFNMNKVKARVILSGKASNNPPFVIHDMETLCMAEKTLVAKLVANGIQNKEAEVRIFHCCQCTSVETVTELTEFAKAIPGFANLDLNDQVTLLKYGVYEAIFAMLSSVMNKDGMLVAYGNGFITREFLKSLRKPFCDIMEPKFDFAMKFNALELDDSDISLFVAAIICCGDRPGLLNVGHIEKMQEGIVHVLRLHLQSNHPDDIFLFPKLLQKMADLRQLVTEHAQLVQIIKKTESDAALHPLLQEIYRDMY
# Method: (§1) SPR analysis was performed using a Reichert SR7500DC (Reichert Technologies, Depew, NY, USA). HA-PPARα, HA-PPARβ/δ, and HA-PPARγ were purified as previously described[23] and was immobilised on CMDH chips (Reichert Technologies) according to the manufacturer’s instructions. MD001 was loaded in a dose-dependent manner (31.25, 62.5, 125, 250, and 500 μM) for the SPR assay. The dissociation constant (KD) value was determined using the Scrubber2 program (Informer Technologies, Inc., Los Angeles, CA, USA).
# [3] = test system: differentiated C2C12 myotubes; test: qRT-PCR gene expression in differentiated C2C12 myotubes; format: cell-based, mouse; details: 24 h
# Method: (§2) Figure 3 MD001 promotes glucose consumption by induction of GLUT expression. HepG2 (A), differentiated 3T3-L1 adipocytes (B), and differentiated C2C12 myotubes (C) were treated with vehicle, MD001 (10, 50 μM), or rosiglitazone (rosi, 10 μM) for 24 h; glucose consumption was examined as described in the Methods section. Cells were harvested for total RNA isolation. Relative expression levels of GLUT2 (D) and GLUT4 (E,F) were quantitated using qRT-PCR. *, **, and ^† vs. vehicle. Data represent the mean ± SD of three independent experiments. *P < 0.05, **P < 0.01, and ^†P < 0.01.
# Figure 4 MD001 stimulates fatty acid oxidation in vitro. […] Relative gene expressions were analysed by qRT-PCR. HepG2 (D), differentiated 3T3-L1 adipocytes (E), and differentiated C2C12 myotubes (F) were treated with vehicle, MD001 (10 μM), or WY14643 (WY) (10 μM) for 24 h and the fatty acid oxidation rate was analysed as described in the Methods section. […]
# Total RNA was isolated using an RNeasy kit (Qiagen, Germantown, MD, USA) according to the manufacturer’s instructions. Complementary DNA (cDNA) was synthesised by reverse transcription using 0.5 μg of total RNA, and quantitative RT-PCR was performed using Power SYBR Green PCR Master Mix (ABI Thermo Fisher Scientific, Foster City, CA, USA) on a StepOne 48-well real-time PCR system (ABI/Thermo Fisher Scientific). […]
# [4] = test system: differentiated 3T3-L1 adipocytes; test: In vitro glucose consumption assay, 3T3-L1 adipocytes; format: cell-based, mouse; details: 10, 50 μM, 24 h
# Method: as §2
# The glucose consumption assay was performed as previously described. Briefly, cells were treated with MD001 or rosiglitazone […]. The conditioned medium from cultured cells was harvested and assayed for glucose content using a Glucose Colorimetric Assay Kit II (BioVision Inc., Milpitas, CA, USA).
# [5] = target: T2, PPARγ (Homo sapiens, UniProt P37231); test: SPR analysis of binding to immobilised HA-PPARγ; details: MD001 31.25-500 μM
# T2 construct: HA; made in house
# T2 sequence (P37231 1-505): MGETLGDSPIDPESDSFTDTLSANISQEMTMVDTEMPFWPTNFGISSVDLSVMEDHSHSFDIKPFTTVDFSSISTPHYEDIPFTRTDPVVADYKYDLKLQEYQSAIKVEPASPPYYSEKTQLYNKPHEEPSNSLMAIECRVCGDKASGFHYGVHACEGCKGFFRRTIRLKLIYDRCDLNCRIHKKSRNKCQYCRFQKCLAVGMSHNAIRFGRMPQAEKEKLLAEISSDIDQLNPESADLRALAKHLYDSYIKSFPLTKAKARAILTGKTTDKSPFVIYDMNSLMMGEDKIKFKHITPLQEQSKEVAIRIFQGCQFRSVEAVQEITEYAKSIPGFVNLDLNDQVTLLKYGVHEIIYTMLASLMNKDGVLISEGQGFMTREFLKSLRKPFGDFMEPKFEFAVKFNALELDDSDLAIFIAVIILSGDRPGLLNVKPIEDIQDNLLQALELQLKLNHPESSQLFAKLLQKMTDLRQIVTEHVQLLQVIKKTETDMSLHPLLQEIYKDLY
# Method: as §1
smiles,measurement,setting,value
Cc1c(O)cc(O)c2c(-c3ccccc3)c(C(=O)/C=C/c3ccccc3)c(=O)oc12 [MD001],β-oxidation rate (fatty acid oxidation),[1],significantly increased
same,Kd,[2],9.55 ± 0.8 µM
same,expression levels of ACOX and CPT,[3]; 10 μM,significantly increased
same,expression of glucose transporter GLUT4,"[3]; 10, 50 μM",significantly increased
same,glucose consumption,[4],significantly increased glucose consumption in a dose-dependent manner
same,Kd,[5],0.14 ± 0.03 µM
